Usually melting point stands for the temperature, or range, at which the solid turns liquid. The IC50 is the point on the concentration scale where inhibition reaches its midpoint. One may read the inhibition as the share of the control response that was lost under treatment.

We go through one compound from PMC9311798, “A Novel Class of Potent Anti-Tyrosinase Compounds with Antioxidant Activity, 2-(Substituted phenyl)-5-(trifluoromethyl)benzo[d]thiazoles: In Vitro and In Silico Insights” (Antioxidants, 2022).

Data set [1] concerns B16F10 murine melanoma cells. The experiment in a line: Extracellular melanin content (melanin release into medium) in α-MSH/IBMX-stimulated cells. Type of data set: cell-based. As to the method:
The anti-melanogenic activities of 1a and 1b were determined using a standard melanin content assay, with minor changes. Briefly, B16F10 cells were seeded in the wells of a 6-well plate at a density of 1 × 10^5 cells/well, and allowed to adhere to well bottoms over 24 h under the conditions used for cell culture (Section 2.3.5). […] Absorbances of culture media at 405 nm were used to determine extracellular melanin contents.

Data set [2] concerns B16F10 murine melanoma cells. The experiment in a line: B16F10 cell viability assay (EZ-Cytox). The class given is cell-based. As to conditions: concentrations ≤20 μM, 48 h. As to the method:
B16F10 murine melanoma cells were obtained from the American Type Culture Collection (ATCC, Manassas, VA, USA). Phosphate buffer solution (PBS), Dulbecco’s modified Eagle’s medium (DMEM), streptomycin, penicillin, trypsin, and fetal bovine serum (FBS) were purchased from Gibco/Thermo Fisher Scientific (Carlsbad, CA, USA). B16F10 cells were cultured in a DMEM solution comprising 10% heat-inactivated FBS, penicillin (100 IU/mL), and streptomycin (100 µg/mL), at 37 °C in a humidified 5% CO2 atmosphere. Experiments for anti-melanogenesis activity, cell viability, and anti-tyrosinase activity were assayed on these cells in 96- or 6-well culture plates.
Cell viability assays for B16F10 were performed using the EZ-Cytox assay (EZ-3000, DoGenBio, Seoul, Korea). In brief, B16F10 cells were seeded in a 96-well plate at a density of 1 × 10^4 cells/well, and cultured at 37 °C for 24 h in a humidified 5% CO2 atmosphere. The next day, B16F10 cells were exposed to six concentrations of 1a or 1b (0, 1, 2, 5, 10, or 20 μM), and incubated under the same conditions for 48 h. Then, the EZ-Cytox solution (10 μL) was added to each well, and the cells mixed with the EZ-Cytox solution were further incubated for 2 h. At 450 nm, optical densities were measured using a microplate reader (VersaMax^TM, Molecular Devices, Sunnyvale, CA, USA).

The target of a further data set is T1, mushroom tyrosinase (Agaricus bisporus, UniProt C7FF04).
T1 construct: purchased Sigma-Aldrich
As to the kind of experiment: Mushroom tyrosinase inhibition assay. Type of data set: biochemical. Here is the method:
Mushroom tyrosinase inhibitory activity was determined as described previously, with minor modifications. L-Tyrosine was used as a substrate to determine enzyme activities. […] These dose-dependent inhibition experiments were carried out three times using three to five different concentrations of test compounds to determine IC50 values. Log–linear curves and their equations were derived from the observed percentages of inhibition.

Data set [3] deals with B16F10 murine melanoma cells. The experiment in a line: Intracellular melanin content in α-MSH/IBMX-stimulated cells. Type of data set: cell-based. Here is the method:
The cultured cells were rinsed with PBS twice and pellets were dissolved in 200 µL of 1N-NaOH solution containing 10% DMSO for 1 h at 60 °C. Cell lysates were then transferred to a 96-well plate, and the melanin absorbances were measured in aqueous DMSO at 405 nm using a microplate reader (VersaMax^TM, Molecular Devices, Sunnyvale, CA, USA).

For data set [4], the target named is T2, cellular tyrosinase in B16F10 cells (Mus musculus, UniProt P11344).
T2 construct: endogenous in cells; host or cells: B16F10 murine melanoma cells, stimulated with alpha-MSH and IBMX
T2 sequence (P11344 19-533): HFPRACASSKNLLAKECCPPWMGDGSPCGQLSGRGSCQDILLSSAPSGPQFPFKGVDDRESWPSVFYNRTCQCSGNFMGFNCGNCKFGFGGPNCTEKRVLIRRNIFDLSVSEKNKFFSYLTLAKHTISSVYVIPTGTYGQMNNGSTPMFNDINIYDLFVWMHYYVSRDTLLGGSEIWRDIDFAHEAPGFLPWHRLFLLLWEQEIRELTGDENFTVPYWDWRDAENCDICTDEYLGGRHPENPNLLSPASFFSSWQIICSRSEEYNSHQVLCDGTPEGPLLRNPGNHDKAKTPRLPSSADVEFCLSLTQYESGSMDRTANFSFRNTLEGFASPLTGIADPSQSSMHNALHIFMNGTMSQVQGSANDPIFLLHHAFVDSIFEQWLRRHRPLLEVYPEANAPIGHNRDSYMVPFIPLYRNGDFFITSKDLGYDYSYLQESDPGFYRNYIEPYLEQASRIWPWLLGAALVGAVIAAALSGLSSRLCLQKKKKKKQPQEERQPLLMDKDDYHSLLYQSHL
The experiment in a line: Cellular tyrosinase activity (L-DOPA oxidation) in α-MSH/IBMX-stimulated cells. Type of data set: cell-based, murine. Here is the method:
Cellular tyrosinase activity was assessed by measuring the oxidation rate of L-DOPA as previously described, with minor modifications. In brief, B16F10 cells were seeded in a 6-well plate at 1 × 10^5 cells/well, and allowed to adhere to well bottoms for 24 h, as described in Section 2.3.5. […]. Cells were then rinsed twice with PBS, exposed to 100 µL of lysis buffer solution (90 µL of 50 mM phosphate buffer (pH 6.5), 5 µL of 2 mM PMSF, and 5 µL of 20% Triton X-100), and lysed at −80 °C for 30 min. After defrosting, cell lysates were transferred to microcentrifuge tubes and centrifuged at 12,000 rpm for 30 min at 4°C, and supernatants (80 µL) were mixed with 20 µL of L-DOPA (2 mg/mL) in a 96-well plate, and incubated for 10 min at 37 °C. Absorbances were measured at 475 nm using a microplate reader (VersaMax^TM, Molecular Devices, Sunnyvale, CA, USA).

[5] abbreviates: read-out: Mushroom tyrosinase inhibition (%).
Setting [6] is: 10 µM, compared with kojic acid 20 µM.

T1 sequence (C7FF04 1-392 limits assumed): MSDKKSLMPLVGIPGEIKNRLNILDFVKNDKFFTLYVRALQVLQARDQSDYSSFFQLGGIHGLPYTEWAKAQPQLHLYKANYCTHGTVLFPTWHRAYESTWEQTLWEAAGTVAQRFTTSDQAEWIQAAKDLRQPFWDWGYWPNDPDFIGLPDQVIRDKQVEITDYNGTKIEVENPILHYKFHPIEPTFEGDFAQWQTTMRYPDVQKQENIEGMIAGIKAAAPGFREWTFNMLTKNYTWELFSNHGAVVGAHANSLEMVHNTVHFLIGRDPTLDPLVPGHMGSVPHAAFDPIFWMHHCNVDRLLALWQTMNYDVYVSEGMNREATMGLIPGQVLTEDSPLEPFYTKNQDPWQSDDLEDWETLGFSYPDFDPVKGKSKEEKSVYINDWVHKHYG

For `Oc1ccc(-c2nc3cc(C(F)(F)F)ccc3s2)cc1` [Compound 1a, 4-(5-(Trifluoromethyl)benzo[d]thiazol-2-yl)phenol], the melting point lay in the range of 187.2 to 188.9 °C. Further, the melanin release result in data set [1] (20 µM) is recorded as “reduced melanin release to control levels”. For the same compound, the “effect on melanin content in media” value in data set [1] (5, 10, 20 µM, α-MSH (1 µM) + IBMX (200 µM), 48 h) is “concentration-dependently and significantly reduced melanin content increases”. Moreover, the “cytotoxic effect on B16F10 cell viability” value in data set [2] was “Neither compound exhibited a significant cytotoxic effect”. The IC50 at mushroom tyrosinase (L-tyrosine as substrate) stood at 54.2 ± 0.82 µM. Also, on mushroom tyrosinase (setting [5]), the inhibition at 10 µM was 30.4 ± 0.31% and the inhibition at 50 µM was 48.2 ± 0.25%. In data set [3] (setting [6]), the “inhibition of α-MSH/IBMX-induced intracellular melanin increase” value is “more potently inhibited α-MSH/IBMX-induced increases in melanin than kojic acid at 20 µM”. In data set [3] (5, 10, 20 µM, α-MSH + IBMX, 48 h), the “effect on intracellular melanin content” value was “significantly and concentration-dependently reduced intracellular melanin increases”. In data set [4] (setting [6]), the cellular tyrosinase activity result is listed as “reduced tyrosinase activity to that achieved by 20 µM kojic acid”. Besides, in data set [4] (5, 10, 20 µM, IBMX + α-MSH, 48 h), the “effect on cellular tyrosinase activity” value was “significantly and concentration-dependently suppressed”.
